Test results: BindingDB's records for doi:10.1016/j.bmcl.2011.12.068 (Janssen Pharmaceutica, 2012)

Legend:
[1] = target: Transient receptor potential cation channel subfamily A member 1 (Rattus norvegicus, UniProt Q6RI86); assay: Antagonist activity at rat TRPA1 expressed in HEK293 cells assessed as inhibition of BITC-induced increase in intracellular calcium concentration by Fluo4-AM based fluorometric assay
[2] = target: Transient receptor potential cation channel subfamily A member 1 (Homo sapiens, UniProt O75762); assay: Antagonist activity at human TRPA1 expressed in HEK293 cells assessed as inhibition of 5H-dibenzo[b,e]azepine-10-carboxylic acid methyl ester-induced increase in intracellular calcium by Fluo4-AM based fluorometric assay
Sequence of Transient receptor potential cation channel subfamily A member 1 (Homo sapiens, UniProt O75762) (O75762 whole entry): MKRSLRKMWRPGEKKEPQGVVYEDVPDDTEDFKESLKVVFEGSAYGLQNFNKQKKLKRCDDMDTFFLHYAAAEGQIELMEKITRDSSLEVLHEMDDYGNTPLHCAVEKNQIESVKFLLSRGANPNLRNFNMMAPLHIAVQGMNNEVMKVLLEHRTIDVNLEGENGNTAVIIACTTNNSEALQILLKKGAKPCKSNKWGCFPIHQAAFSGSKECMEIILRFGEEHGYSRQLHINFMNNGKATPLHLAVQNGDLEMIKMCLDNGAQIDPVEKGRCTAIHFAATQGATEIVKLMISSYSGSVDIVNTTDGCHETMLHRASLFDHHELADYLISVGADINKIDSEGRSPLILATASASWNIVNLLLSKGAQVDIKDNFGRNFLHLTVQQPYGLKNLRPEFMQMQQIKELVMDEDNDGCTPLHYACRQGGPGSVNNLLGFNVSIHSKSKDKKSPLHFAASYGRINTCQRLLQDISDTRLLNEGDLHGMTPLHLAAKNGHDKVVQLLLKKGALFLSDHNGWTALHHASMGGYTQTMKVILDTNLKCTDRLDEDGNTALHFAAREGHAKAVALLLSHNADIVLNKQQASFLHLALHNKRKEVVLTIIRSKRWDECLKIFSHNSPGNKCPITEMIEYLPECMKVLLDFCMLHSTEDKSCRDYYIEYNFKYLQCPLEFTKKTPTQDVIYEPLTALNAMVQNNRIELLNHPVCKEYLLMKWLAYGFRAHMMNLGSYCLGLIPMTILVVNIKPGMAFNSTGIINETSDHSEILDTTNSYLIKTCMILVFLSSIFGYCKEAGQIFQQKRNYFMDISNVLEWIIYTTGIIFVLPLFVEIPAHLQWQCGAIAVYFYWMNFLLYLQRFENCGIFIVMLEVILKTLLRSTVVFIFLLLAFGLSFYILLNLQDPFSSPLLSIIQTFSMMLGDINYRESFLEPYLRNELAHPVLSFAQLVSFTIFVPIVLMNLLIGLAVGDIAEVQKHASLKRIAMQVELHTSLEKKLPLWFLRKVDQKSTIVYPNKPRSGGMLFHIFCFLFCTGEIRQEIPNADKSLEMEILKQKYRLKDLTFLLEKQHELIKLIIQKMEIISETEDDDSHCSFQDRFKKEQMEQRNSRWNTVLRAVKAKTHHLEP

Sequence of Transient receptor potential cation channel subfamily A member 1 (Rattus norvegicus, UniProt Q6RI86) (Q6RI86 whole entry E27K): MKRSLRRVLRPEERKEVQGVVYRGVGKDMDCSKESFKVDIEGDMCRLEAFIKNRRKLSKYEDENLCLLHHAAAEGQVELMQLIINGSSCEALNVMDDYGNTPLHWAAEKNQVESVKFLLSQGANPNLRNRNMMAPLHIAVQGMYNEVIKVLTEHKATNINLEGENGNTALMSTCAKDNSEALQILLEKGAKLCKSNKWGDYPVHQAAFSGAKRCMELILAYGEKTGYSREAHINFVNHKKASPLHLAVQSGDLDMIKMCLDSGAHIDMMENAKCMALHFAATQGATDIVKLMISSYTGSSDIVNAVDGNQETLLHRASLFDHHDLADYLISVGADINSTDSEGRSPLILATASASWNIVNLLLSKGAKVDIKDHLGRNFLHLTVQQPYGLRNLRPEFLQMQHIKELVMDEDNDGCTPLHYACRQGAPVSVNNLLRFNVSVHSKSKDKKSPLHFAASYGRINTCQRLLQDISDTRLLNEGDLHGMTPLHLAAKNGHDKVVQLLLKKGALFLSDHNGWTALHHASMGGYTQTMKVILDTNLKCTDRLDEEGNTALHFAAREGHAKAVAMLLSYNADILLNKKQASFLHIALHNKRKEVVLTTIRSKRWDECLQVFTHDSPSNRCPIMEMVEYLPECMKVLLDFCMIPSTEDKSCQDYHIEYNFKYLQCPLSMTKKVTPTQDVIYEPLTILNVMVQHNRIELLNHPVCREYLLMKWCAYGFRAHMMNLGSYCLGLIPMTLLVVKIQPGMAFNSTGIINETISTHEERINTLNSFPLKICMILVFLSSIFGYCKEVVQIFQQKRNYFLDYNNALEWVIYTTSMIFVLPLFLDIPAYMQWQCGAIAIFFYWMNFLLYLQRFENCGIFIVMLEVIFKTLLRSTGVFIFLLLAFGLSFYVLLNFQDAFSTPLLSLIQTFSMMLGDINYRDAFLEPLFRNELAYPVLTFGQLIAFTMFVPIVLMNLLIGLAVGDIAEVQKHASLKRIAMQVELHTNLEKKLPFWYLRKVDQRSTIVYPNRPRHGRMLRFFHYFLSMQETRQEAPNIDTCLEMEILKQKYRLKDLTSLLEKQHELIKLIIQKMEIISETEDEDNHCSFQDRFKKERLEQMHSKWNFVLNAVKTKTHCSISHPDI

`O=C1N=C2c3ccccc3C(=O)C2C(c2ccccc2)N1` (stereo not given) was tested, and the IC50 [1] was > 10 µM and the IC50 [2] was > 10 µM.
In the case of `O=C(O)c1cccc(C2NC(=S)N=C3c4ccccc4C(=O)C32)c1` (stereo not given), the IC50 [1] is reported as > 10 µM and the IC50 [2] is reported as > 10 µM.
`COc1ccc(OC)c(C2NC(=S)N=C3c4ccccc4C(=O)C32)c1` (stereo not given) was tested, and the IC50 [1] was > 10 µM and the IC50 [2] was > 10 µM.
`CN(C)CCCOc1cccc(C2NC(=S)N=C3c4ccccc4C(=O)C32)c1` (stereo not given) was tested, and the IC50 [1] was > 10 µM and the IC50 [2] was > 10 µM.
In the case of `S=C1N=C(c2ccccc2)CC(c2ccccc2)N1` (stereo not given), the IC50 [2] is reported as > 10 µM.
With `S=C1N=C2c3ccccc3CCC2C(c2ccccc2)N1` (stereo not given) the IC50 [2] was > 10 µM.
In the case of `S=C1N=C2C(=Cc3ccccc3)CCCC2C(c2ccccc2)N1` (stereo not given), the IC50 [2] is reported as > 10 µM.
`S=C1N=C2CCCC2C(c2ccccc2)N1` (stereo not given) was tested, and the IC50 [2] was > 10 µM.
`S=C1N=C2CCCCC2C(c2ccccc2)N1` (stereo not given) was tested, and the IC50 [2] was > 10 µM.
`O=C1CCCC2=NC(=S)NC(c3ccccc3)C12` (stereo not given) was tested, and the IC50 [2] was > 10 µM.
With `CC1=NC(=S)NC(c2ccccc2)C1C(=O)c1ccccc1` (stereo not given) the IC50 [2] was > 10 µM.
